From patent publication US8198317B2, “Methylenedioxy phenolic compounds and their use to treat disease” (The Ohio State University Research Foundation, priority 2008, dated 2012)

Columns and labels:
[1] = tested on: LDL receptor; assay: LDL receptor mRNA by RT-PCR in HepG2 cells; format: cell-based, human; conditions: HepG2, time dependent and dose dependent
Protocol: FIG. 5E is graph showing time course of low density lipoprotein receptor (LDLR) messenger RNA (mRNA) with INV-75 assessed by quantitative real time polymerase chain reaction (RT-PCR). A total of three experiments were performed. *, p<0.01 by ANOVA compared to vehicle.
FIG. 5F is a graph showing dose dependency experiments of low density lipoprotein receptor (LDLR) messenger RNA (mRNA) measurement with INV-75. HepG2 cells were stimulated with multiple concentrations of INV-75 for 1 hour and LDL mRNA expression was measured by quantitative real time polymerase chain reaction (RT-PCR). A total of three experiments were performed. *, p<0.01 by ANOVA compared to vehicle. Dose of INV-75 is log molar concentration.
Next we investigated the effect of INV-75 in regulating LDL receptor expression in the same cells using a similar protocol to assess dose and temporal dependence. FIGS. 5E and 5F depict the time course of LDL receptor expression and dose dependence in response to INV-75. […] INV-75 had no effects on SREBP-1 regulation (data not shown). Simultaneously multiple genes involved in cholesterol synthesis and regulation, apolipoprotein gene expression and expression of PCSK9 (Proprotein convertase subtilisin/kexin type 9) was tested. […]

[2] = tested on: SREBP-1; assay: SREBP-1 regulation in HepG2 cells; format: cell-based, human; conditions: data not shown
From the text: Next we investigated the effect of INV-75 in regulating LDL receptor expression in the same cells using a similar protocol to assess dose and temporal dependence. FIGS. 5E and 5F depict the time course of LDL receptor expression and dose dependence in response to INV-75. […] INV-75 had no effects on SREBP-1 regulation (data not shown). Simultaneously multiple genes involved in cholesterol synthesis and regulation, apolipoprotein gene expression and expression of PCSK9 (Proprotein convertase subtilisin/kexin type 9) was tested. The latter gene is known to regulate LDL receptor expression by binding to the epidermal growth factor-like repeat A (EGF-A) domain of the low-density lipoprotein receptor (LDLR), inducing LDLR degradation. Inhibition of PSCK9 function is currently being explored as a means of lowering cholesterol levels.

[3] = tested on: thoracic aorta of WHHL rabbits; assay: Organ chamber experiments on thoracic aortic rings of WHHL rabbits; format: in vivo, rabbit
Protocol: Rabbits were euthanized by injection of lethal doses of pentobarbital. The ascending aortas was removed and 2 mm thoracic aortic rings were suspended in individual organ chambers filled with physiological salt solution buffer (sodium chloride, 130 mEq/L; potassium chloride, 4.7 mEq/L; calcium dichloride, 1.6 mEq/L; magnesium sulfate, 1.17 mEq/L; potassium diphosphate, 1.18 mEq/L; sodium bicarbonate, 14.9 mEq/L; EDTA, 0.026 mEq/L; and glucose, 99.1 mg/dL [5.5 mmol/L]; pH, 7.4), aerated continuously with 5% carbon dioxide in oxygen at 37° C. Vessels were allowed to equilibrate for at least 1 hour at a resting tension of 30 mN before being subjected to graded doses of agonists as described previously. The vasoconstrictor agonists included phenylephrine (PE), endothelin-1 (ET-1), or angiotensin II. Responses were expressed as a percentage of the peak response to 120 mEq/L of potassium chloride. The vessels subjected to PE were washed thoroughly and allowed to equilibrate for 1 hour before beginning experiments with acetylcholine, sodium nitroprusside (SNP) or insulin. […] Results were expressed as a percentage of pre-contraction by PE (0.1 μM). The rings exposed to acetylcholine were thoroughly washed and allowed to equilibrate for 1 hour. […] Results were expressed as a percentage of pre-contraction by PE (0.1 μM). INV-75 decreased aortic contraction by angiotensin II but had no effect on phenylephrine (FIG. 15 and FIG. 16).

[4] = tested on: C57Bl/6 mice; assay: SREBP-2, LDLR and LDL in vivo in mice; set-up: species or system mouse; conditions: 20 mg/kg/day intraperitoneally, two weeks
Protocol: To study the effect of INV-75 on SREBP activity in vivo experiment was performed as follows: C57bl/6 mice (6/group) were intraperitoneally injected with INV-75 (20 mg/kg/day, for two weeks). The binding activity of SREBP2 in nuclear proteins of liver homogenates was measured by electrophoretic migration shift assay (EMSA). Simultaneously multiple genes involved in cholesterol synthesis and regulation, apolipoprotein gene expression and expression of PCSK9 (Proprotein convertase subtilisin/kexin type 9) were also studied in the liver. PCSK9 is known to regulate LDL receptor expression by binding to the epidermal growth factor-like repeat A (EGF-A) domain of the low-density lipoprotein receptor (LDLR), inducing LDLR degradation.

[5] = tested on: Patients; assay: Treatment of dyslipidemia in diabetic patients (Example 25); format: in vivo, human; conditions: oral, 12 months
From the text: Individuals with Type I and Type II diabetes are at risk for future cardiovascular events such as heart attacks, strokes and kidney disease. These individuals often have abnormalities in lipids such as elevations in triglycerides and VLDL cholesterol. They are on treatments such as hypolipidemic drug therapy such as statins and fibrates (Gemfibrozil or Fenofibrate) to lover cholesterol levels in conjunction with glycemia lowering strategies such as Insulin, PPAR γ agents, Metformin or sulfonylurea therapy. In addition to these treatments they will also receive an acceptable dose of a composition comprising a compound of the present invention in an acceptable carrier orally chronically for durations in excess of 12 months. In one study, (3,4-methylenedioxy phenyl acetate (INV 73); 3,4-methylenedioxy-6-nitrophenol (INV 74); 3,4-methylenedioxy-6-nitrophenyl acetate (INV 75); are administered to these individuals. The patients undergo lipid measurements at baseline and at the end of treatment for a 12 month duration. At the end of 12 months of treatment, there is lowering of VLDL cholesterol and a decrease in triglycerides.

CC(=O)Oc1cc2c(cc1[N+](=O)[O-])OCO2 [INV-75, 3,4-methylenedioxy-6-nitrophenyl acetate]
LDL receptor expression [1]: increases | SREBP-1 regulation [2]: no effects | aortic contraction by angiotensin II ([3]; in words): decreased | effect on insulin relaxation ([3]; in words): marginal (non-significant effect | effect on phenylephrine response ([3]; in words): no effect | effect on response to endothelin-1 ([3]; in words): no effects | effect on SNP response ([3]; results not shown): no effects | LDL [4]: significantly lowered | LDL receptor expression in liver (real-time RT-PCR, western blot) [4]: increase | SREBP2 activation in liver (EMSA) [4]: dramatically activated | other lipoproteins [4]: not other lipoproteins | VLDL cholesterol [5]: lowering | triglycerides [5]: decrease
